Measurements as given in patent US20220282217A1, “COMPOSITIONS AND METHODS FOR PREPARING T CELL COMPOSITIONS AND USES THEREOF” (priority 2019, published 2022).
Where a SMILES comes first, the peptide text is derived from it.

How the values were obtained:
HLA-A03.01 = HLA-A03.01 (Homo sapiens, UniProt P04439); assay: Class I MHC peptide binding affinity (displacement of radiolabeled reference peptide); conditions: allele A03.01; read-out: Observed Affinity (IC50; (nM))
[1] = target: 293T cells transduced with GATA3 neoORF, expressing the HLA of interest (Homo sapiens, UniProt P04439); assay: Presentation of GATA3 neoantigens: HLA-eluted peptides by targeted MS/MS (PRM) (Table 14); assay type: cell-based; conditions: GATA3 neoORF transduced 293T cells expressing HLA-A*03:01 protein
Protocol: (§1) To assess whether antigens could be processed and presented from the larger polypeptide context, peptides eluted from HLA molecules isolated from cells expressing the genes of interest were analyzed by tandem mass spectrometry (MS/MS).
(§2) Between 50 and 700 million of the transduced cells expressing peptides encoded by the GATA3 neoORF sequence were cultured and peptides were eluted from HLA-peptide complexes using an acid wash. Eluted peptides were then analyzed by targeted MS/MS using PRM. Spectral comparison between peptides derived from GATA3 neoORF and corresponding synthetic peptides were performed to confirm each detection.

[2] = system: 293T cells transduced with GATA3 neoORF, expressing the HLA of interest; assay: as above; assay type: cell-based, human; conditions: GATA3 neoORF transduced 293T cells expressing HLA-A*11:01 protein
Protocol: as §1, §2

HLA-A02.01 [3] = target: HLA-A02.01 (Homo sapiens, UniProt P04439, D140Y/D185E/D98H/E176V/E277Q/G131W/G231S/I119V/I121R/I166T/I218V/L300P/L318F/N151K/N90K/P208A/P217A/Q86G/Q94H/R138H/R169H/T345S); assay: Class I MHC peptide binding affinity (displacement of radiolabeled reference peptide)
Procedure, shortened: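 MHC class I complexes were loaded with a radiolabeled reference peptide, then exposed to test peptides over a range of concentrations for 2 days. Reference peptide still bound to the complexes was quantified by size-exclusion gel filtration.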

Class I MHC = Class I MHC peptide binding affinity, any other or unspecified HLA allele named in the row; design: species or system human; conditions: EGFR T790M peptides; HLA allele B08.02
HLA-A02.01 [4] = target: T1, HLA-A02.01 (Homo sapiens, UniProt P04439, D140Y/D185E/D98H/E176V/E277Q/G131W/G231S/I119V/I121R/I166T/I218V/N151K/N90K/P208A/P217A/Q86G/Q94H/R138H/R169H); assay: Class I MHC peptide binding stability (pMHC-I dissociation, 125I-labeled light chain)
T1 construct: made in house; host or cells: E. coli

HLA-A24.02 = assay: as above; design: species or system human
CD8+ T cells = assay: Ex vivo induction of antigen-specific CD8 T cells (FLT3L-treated PBMCs), MHC tetramer/multimer readout; assay type: cell-based, human; design: key to Epitope prefixed with '*': positive CD8+ T cell response: The epitopes that are prefixed with ‘*’, were shown to induce positive CD8+ T cell response in either one or both the donors; key to Immunogenicity (#donors/2): positive CD8+ T cell response in either one or both the donors (marked as 1 or 2 in column 6 respectively); positive CD8+ T cell response in either one or both the donors (marked as 1 or 2 in column 6 respectively); conditions: HLA-A02:01
Protocol: Step 1: Plate 5 million PBMCs (or cells of interest) in each well of 24 well plate with FLT3L in 2 mL AIM V media Step 2: Peptide loading and maturation—in AIMV 1. Mix peptide pool of interest (except for no peptide condition) with PBMCs (or cells of interest) in respective wells.
3. Mix Maturation cocktail (including TNF-α, IL-1β, PGE1, and IL-7) to each well after incubation. Step 3: Add human serum to each well at a final concentration of 10% by volume and mix. Step 4: Replace the media with fresh RPMI+10% HS media supplemented with IL7+IL15. Step 5: Replace the media with fresh 20/80 media supplemented with IL7+IL15 during the period of incubation every 1-6 days. Step 6: Plate 5 million PBMCs (or cells of interest) in each well of new 6-well plate with FLT3L in 2 ml AIM V media Step 7: Peptide loading and maturation for re-stimulation—(new plates) 1. Mix peptide pool of interest (except for no peptide condition) with PBMCs (or cells of interest) in respective wells
1. […]
MHC tetramers are purchased or manufactured on-site according to methods known by one of ordinary skill, and are used to measure peptide-specific T cell expansion in the immunogenicity assays. […] Cells are acquired on a LSR Fortessa (Becton Dickinson) instrument, and are analyzed by use of FlowJo software (Becton Dickinson). […]

## CC[C@H](C)[C@H](NC(=O)[C@@H](N)CCCCN)C(=O)N[C@@H](CCSC)C(=O)N[C@@H](Cc1ccccc1)C(=O)N[C@@H](C)C(=O)N[C@H](C(=O)N[C@@H](CC(C)C)C(=O)N[C@@H](CCC(N)=O)C(=O)N[C@@H](CCCNC(=N)N)C(=O)O)[C@@H](C)O (H-KIMFATLQR-OH; N-terminus and C-terminus assumed)
HLA-A03.01
  IC50: 2.5 nM
[1]
  detected by mass spectrometry (peptide eluted from HLA-peptide complexes): detected
[2]
  detected by mass spectrometry (peptide eluted from HLA-peptide complexes): detected

## CC[C@H](C)[C@H](NC(=O)[C@H](CC(C)C)NC(=O)[C@@H](N)CCC(N)=O)C(=O)N[C@@H](CCSC)C(=O)N[C@@H](CCC(N)=O)C(=O)N[C@@H](CC(C)C)C(=O)N[C@@H](CCSC)C(=O)N1CCC[C@H]1C(=O)N[C@@H](Cc1ccccc1)C(=O)O
HLA-A02.01 [3]; EGFR T790M peptides, HLA allele A02.01, read-out: Affinity
  Kd: 193 nM
HLA-A02.01 [3]; allele A02.01, read-out: Observed Affinity (IC50, (nM))
  IC50: 227 nM
Class I MHC
  Kd: 5590 nM
HLA-A02.01 [4]; EGFR T790M peptides, HLA allele A02.01
  Stability (half-life (hr.)): 20.44 min
HLA-A02.01 [4]; allele A02.01
  Stability (T1/2 (h)): 0.3 h
HLA-A24.02; EGFR T790M peptides, HLA allele A24.02
  Stability (half-life (hr.)): 22.12 min
HLA-A24.02; allele A24.02
  Stability (T1/2 (h)): 0.4 h

## VLDCCISLL
CD8+ T cells; in either one or both the donors
  Epitope prefixed with '*': positive CD8+ T cell response: *VLDCCISLL
CD8+ T cells; positive CD8+ T cell response, number of donors out of 2
  Immunogenicity (#donors/2): 1
